Each structure is given as a SMILES string.

One assay relates to Erysiphe graminis tritici (powdery mildew). Briefly: Greenhouse Test 1, foliar spray fungicide screen (POWD MDEW), host wheat. Type of assay: in vivo. The following applies: disease control rating, 400 ppm (+++ at 100 ppm).
For the compound `Fc1cccc2c(OCCc3ccc4ccccc4c3)ncnc12` [Example 66, 8-fluoro-4-[2-(2-naphthyl)ethoxy]quinazoline], the “POWD MDEW” value is on record as “+++ (+++ = 90-100% control at 100 ppm)”.
Turning to `c1ccc(C(COc2ncnc3ccccc23)c2ccccc2)cc1` [Example 67, 4-(2,2-diphenylethoxy)quinazoline], the “POWD MDEW” value was “+ (+ = 20-89% control at 400 ppm)”.
Turning to `c1ccc(Oc2cccc(CCOc3ncnc4ccccc34)c2)cc1` [Example 68, 4-[2-(3-phenoxyphenyl)ethoxy]quinazoline], the “POWD MDEW” value was “+++ (+++ = 90-100% control at 100 ppm)”.
For the compound `c1ccc(Oc2ccc(CCOc3ncnc4ccccc34)cc2)cc1` [Example 69, 4-[2-(4-phenoxyphenyl)ethoxy]quinazoline], the “POWD MDEW” value is “+++ (+++ = 90-100% control at 100 ppm)”.
Regarding `Fc1cccc2c(OCCC3CCCCC3)ncnc12` [Example 70, 4-(2-cyclohexylethoxy)-8-fluoroquinazoline], the “POWD MDEW” value was “+ (+ = 20-89% control at 400 ppm)”.
With `COc1ccc(CCOc2ncnc3ccccc23)cc1OC` [Example 73, 4-[2-(3,4-dimethoxyphenyl)ethoxy]quinazoline], the “POWD MDEW” value is on record as “++ (++ = 90-100% control at 400 ppm)”.

A further assay concerns Pyricularia oryzae (rice blast).
Assay: not given
Type of assay: in vivo. The following applies: disease control rating, foliar spray, host rice; 400 ppm (+++ at 100 ppm).
On to `Fc1cccc2c(OCCc3ccc4ccccc4c3)ncnc12` [Example 66, 8-fluoro-4-[2-(2-naphthyl)ethoxy]quinazoline], for which the “RICE BLAST” value is “+++ (+++ = 90-100% control at 100 ppm)”.
For `c1ccc(C(COc2ncnc3ccccc23)c2ccccc2)cc1` [Example 67, 4-(2,2-diphenylethoxy)quinazoline], the “RICE BLAST” value was “+ (+ = 20-89% control at 400 ppm)”.
For the compound `c1ccc(Oc2cccc(CCOc3ncnc4ccccc34)c2)cc1` [Example 68, 4-[2-(3-phenoxyphenyl)ethoxy]quinazoline], the “RICE BLAST” value is recorded as “+++ (+++ = 90-100% control at 100 ppm)”.
Same read-out and setting: the entry for `c1ccc(Oc2ccc(CCOc3ncnc4ccccc34)cc2)cc1` [Example 69, 4-[2-(4-phenoxyphenyl)ethoxy]quinazoline] is “+++ (+++ = 90-100% control at 100 ppm)”; for `Fc1cccc2c(OCCC3CCCCC3)ncnc12` [Example 70, 4-(2-cyclohexylethoxy)-8-fluoroquinazoline] it is “+++ (+++ = 90-100% control at 100 ppm)”; for `COc1ccc(CCOc2ncnc3ccccc23)cc1OC` [Example 73, 4-[2-(3,4-dimethoxyphenyl)ethoxy]quinazoline] it is “- (- = 0-19% control at 400 ppm)”.

In a further assay the test system is Puccinia recondita tritici (leaf rust). Briefly: Greenhouse Test 1, foliar spray fungicide screen (LEAF RUST), host wheat. Type of assay: in vivo. As to conditions: disease control rating, 400 ppm (+++ at 100 ppm).
`Fc1cccc2c(OCCc3ccc4ccccc4c3)ncnc12` [Example 66, 8-fluoro-4-[2-(2-naphthyl)ethoxy]quinazoline]: the “LEAF RUST” value is listed as “+++ (+++ = 90-100% control at 100 ppm)”.
For the compound `c1ccc(C(COc2ncnc3ccccc23)c2ccccc2)cc1` [Example 67, 4-(2,2-diphenylethoxy)quinazoline], the “LEAF RUST” value was “- (- = 0-19% control at 400 ppm)”.
`c1ccc(Oc2cccc(CCOc3ncnc4ccccc34)c2)cc1` [Example 68, 4-[2-(3-phenoxyphenyl)ethoxy]quinazoline]: the “LEAF RUST” value was “+++ (+++ = 90-100% control at 100 ppm)”.
On the same count and under the same terms, next, `c1ccc(Oc2ccc(CCOc3ncnc4ccccc34)cc2)cc1` [Example 69, 4-[2-(4-phenoxyphenyl)ethoxy]quinazoline]: “+++ (+++ = 90-100% control at 100 ppm)”; `Fc1cccc2c(OCCC3CCCCC3)ncnc12` [Example 70, 4-(2-cyclohexylethoxy)-8-fluoroquinazoline]: “+ (+ = 20-89% control at 400 ppm)”; `COc1ccc(CCOc2ncnc3ccccc23)cc1OC` [Example 73, 4-[2-(3,4-dimethoxyphenyl)ethoxy]quinazoline]: “+++ (+++ = 90-100% control at 100 ppm)”.

The next assay concerns Botrytis cinerea (gray mold). Briefly: Greenhouse Test 1, foliar spray fungicide screen (GRAY MOLD), host grape berries. Type of assay: in vivo. As to conditions: disease control rating, 400 ppm (+++ at 100 ppm).
With `Fc1cccc2c(OCCc3ccc4ccccc4c3)ncnc12` [Example 66, 8-fluoro-4-[2-(2-naphthyl)ethoxy]quinazoline], the “GRAY MOLD” value is given as “- (- = 0-19% control at 400 ppm)”.
Same read-out and setting: the entry for `c1ccc(C(COc2ncnc3ccccc23)c2ccccc2)cc1` [Example 67, 4-(2,2-diphenylethoxy)quinazoline] is “- (- = 0-19% control at 400 ppm)”; for `c1ccc(Oc2cccc(CCOc3ncnc4ccccc34)c2)cc1` [Example 68, 4-[2-(3-phenoxyphenyl)ethoxy]quinazoline] it is “- (- = 0-19% control at 400 ppm)”.
Still for that read-out and setting: the entry for `c1ccc(Oc2ccc(CCOc3ncnc4ccccc34)cc2)cc1` [Example 69, 4-[2-(4-phenoxyphenyl)ethoxy]quinazoline] is “- (- = 0-19% control at 400 ppm)”.
In the case of `Fc1cccc2c(OCCC3CCCCC3)ncnc12` [Example 70, 4-(2-cyclohexylethoxy)-8-fluoroquinazoline], the “GRAY MOLD” value was “- (- = 0-19% control at 400 ppm)”.
For `COc1ccc(CCOc2ncnc3ccccc23)cc1OC` [Example 73, 4-[2-(3,4-dimethoxyphenyl)ethoxy]quinazoline], the “GRAY MOLD” value is recorded as “- (- = 0-19% control at 400 ppm)”.

Another assay concerns Pseudoperonospora cubensis (downy mildew). Briefly: Greenhouse Test 1, foliar spray fungicide screen (DOWN MDEW), host squash. Type of assay: in vivo. The following applies: disease control rating, 400 ppm (+++ at 100 ppm).
Regarding `Fc1cccc2c(OCCc3ccc4ccccc4c3)ncnc12` [Example 66, 8-fluoro-4-[2-(2-naphthyl)ethoxy]quinazoline], the “DOWN MDEW” value is “+++ (+++ = 90-100% control at 100 ppm)”.
As to `c1ccc(C(COc2ncnc3ccccc23)c2ccccc2)cc1` [Example 67, 4-(2,2-diphenylethoxy)quinazoline], the “DOWN MDEW” value is “++ (++ = 90-100% control at 400 ppm)”.
On to `c1ccc(Oc2cccc(CCOc3ncnc4ccccc34)c2)cc1` [Example 68, 4-[2-(3-phenoxyphenyl)ethoxy]quinazoline], for which the “DOWN MDEW” value is reported as “+++ (+++ = 90-100% control at 100 ppm)”.
With `c1ccc(Oc2ccc(CCOc3ncnc4ccccc34)cc2)cc1` [Example 69, 4-[2-(4-phenoxyphenyl)ethoxy]quinazoline], the “DOWN MDEW” value is on record as “+++ (+++ = 90-100% control at 100 ppm)”.
On the same count and under the same terms, the entry for `Fc1cccc2c(OCCC3CCCCC3)ncnc12` [Example 70, 4-(2-cyclohexylethoxy)-8-fluoroquinazoline] is “+ (+ = 20-89% control at 400 ppm)”; for `COc1ccc(CCOc2ncnc3ccccc23)cc1OC` [Example 73, 4-[2-(3,4-dimethoxyphenyl)ethoxy]quinazoline] it is “+++ (+++ = 90-100% control at 100 ppm)”.

A further assay deals with Southern corn rootworm (Diabrotica undecimpuctata howardi Barber). Briefly: Mite/insect screen, soil treatment (CRW). Type of assay: in vivo. The following applies: Diabrotica; percent mortality; soil treatment, CRW rate 24.00 ppm; read-out: CRW RESULTS %. In short, it runs like this: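 Five 2–3 instar larvae were placed on dry sandy soil with a presoaked corn seed after the soil had received 1 mL of compound solution and dried 6–12 h; cups were kept capped at 23°C. Mortality (%) and phytotoxicity were read after standard exposure. Formulation: acetone/alcohol with emulsifiers, water-diluted.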
As for `Fc1cccc2c(OCCc3ccc4ccccc4c3)ncnc12` [Example 66, 8-fluoro-4-[2-(2-naphthyl)ethoxy]quinazoline], the mortality at 24 ppm is 0%.
For the compound `c1ccc(C(COc2ncnc3ccccc23)c2ccccc2)cc1` [Example 67, 4-(2,2-diphenylethoxy)quinazoline], the mortality at 24 ppm was 0%.
Turning to `c1ccc(Oc2cccc(CCOc3ncnc4ccccc34)c2)cc1` [Example 68, 4-[2-(3-phenoxyphenyl)ethoxy]quinazoline], the mortality at 24 ppm worked out at 0%.
Turning to `c1ccc(Oc2ccc(CCOc3ncnc4ccccc34)cc2)cc1` [Example 69, 4-[2-(4-phenoxyphenyl)ethoxy]quinazoline], the mortality at 24 ppm worked out at 0%.
For the compound `Fc1cccc2c(OCCC3CCCCC3)ncnc12` [Example 70, 4-(2-cyclohexylethoxy)-8-fluoroquinazoline], the mortality at 24 ppm is 0%.
Same read-out and setting: next, `COc1ccc(CCOc2ncnc3ccccc23)cc1OC` [Example 73, 4-[2-(3,4-dimethoxyphenyl)ethoxy]quinazoline]: 100%.

For another assay, the system named is southern armyworm (Spodopetra eridania Cramer). Briefly: Mite/insect screen, sprayed squash leaves (SAW). As to conditions: Spodoptera eridania, percent mortality; spray rate 400 ppm; read-out: SAW RESULTS %. Type of assay: in vivo. In short, it runs like this: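 Mortality and phytotoxicity read after standard exposure periods on sprayed squash: cotyledons for melon aphids and twospotted spider mites, excised leaves placed with southern armyworm larvae. Spray solutions were water dilutions of acetone/alcohol stocks containing TOXIMUL R and S emulsifiers, applied to runoff at 10 psi and air-dried one hour.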
With `Fc1cccc2c(OCCc3ccc4ccccc4c3)ncnc12` [Example 66, 8-fluoro-4-[2-(2-naphthyl)ethoxy]quinazoline], the mortality at 400 ppm is 0%.
On to `c1ccc(C(COc2ncnc3ccccc23)c2ccccc2)cc1` [Example 67, 4-(2,2-diphenylethoxy)quinazoline], for which the mortality at 400 ppm worked out at 0%.
Same read-out and setting: the figure for `c1ccc(Oc2cccc(CCOc3ncnc4ccccc34)c2)cc1` [Example 68, 4-[2-(3-phenoxyphenyl)ethoxy]quinazoline] is 0%.
On to `c1ccc(Oc2ccc(CCOc3ncnc4ccccc34)cc2)cc1` [Example 69, 4-[2-(4-phenoxyphenyl)ethoxy]quinazoline], for which the mortality at 400 ppm was found to be 100%.
For `Fc1cccc2c(OCCC3CCCCC3)ncnc12` [Example 70, 4-(2-cyclohexylethoxy)-8-fluoroquinazoline], the mortality at 400 ppm came to 0%.
`COc1ccc(CCOc2ncnc3ccccc23)cc1OC` [Example 73, 4-[2-(3,4-dimethoxyphenyl)ethoxy]quinazoline]: the mortality at 400 ppm amounted to 0%.

The subject of another assay is Twospotted spider mites (Tetranychus urticae Koch). Briefly: Mite/insect screen, sprayed squash cotyledons (SM). Type of assay: in vivo. As to conditions: Tetranychus urticae, percent mortality; spray rate 400 ppm; read-out: SM RESULTS %. In short, it runs like this:
(§1)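 Steps: formulate compound in acetone/alcohol 50:50 carrying emulsifiers; dilute with water; spray leaves until runoff on upper and lower surfaces; air-dry one hour; for armyworm, excise two […] leaves into a dish of larvae; after exposure, score mortality and plant injury.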
Take `Fc1cccc2c(OCCc3ccc4ccccc4c3)ncnc12` [Example 66, 8-fluoro-4-[2-(2-naphthyl)ethoxy]quinazoline]: the mortality at 400 ppm is 0%.
`c1ccc(C(COc2ncnc3ccccc23)c2ccccc2)cc1` [Example 67, 4-(2,2-diphenylethoxy)quinazoline]: the mortality at 400 ppm turned out to be 60%.
`c1ccc(Oc2cccc(CCOc3ncnc4ccccc34)c2)cc1` [Example 68, 4-[2-(3-phenoxyphenyl)ethoxy]quinazoline]: the mortality at 400 ppm came to 90%.
As for `c1ccc(Oc2ccc(CCOc3ncnc4ccccc34)cc2)cc1` [Example 69, 4-[2-(4-phenoxyphenyl)ethoxy]quinazoline], the mortality at 400 ppm was 100%.
`Fc1cccc2c(OCCC3CCCCC3)ncnc12` [Example 70, 4-(2-cyclohexylethoxy)-8-fluoroquinazoline]: the mortality at 400 ppm is 80%.
On to `COc1ccc(CCOc2ncnc3ccccc23)cc1OC` [Example 73, 4-[2-(3,4-dimethoxyphenyl)ethoxy]quinazoline], for which the mortality at 400 ppm was determined as 0%.

The subject of a further assay is melon aphids (Aphis gossypii Glover). Briefly: Mite/insect screen, sprayed squash cotyledons (MA). The following applies: Aphis gossypii, percent mortality; spray rate 400 ppm; read-out: MA RESULTS %. Type of assay: in vivo. The gist of the method: as §1
`Fc1cccc2c(OCCc3ccc4ccccc4c3)ncnc12` [Example 66, 8-fluoro-4-[2-(2-naphthyl)ethoxy]quinazoline]: the mortality at 400 ppm was 0%.
`c1ccc(C(COc2ncnc3ccccc23)c2ccccc2)cc1` [Example 67, 4-(2,2-diphenylethoxy)quinazoline]: the mortality at 400 ppm turned out to be 30%.
`c1ccc(Oc2cccc(CCOc3ncnc4ccccc34)c2)cc1` [Example 68, 4-[2-(3-phenoxyphenyl)ethoxy]quinazoline]: the mortality at 400 ppm came to 100%.
`c1ccc(Oc2ccc(CCOc3ncnc4ccccc34)cc2)cc1` [Example 69, 4-[2-(4-phenoxyphenyl)ethoxy]quinazoline]: the mortality at 400 ppm was 0%.
Consider `Fc1cccc2c(OCCC3CCCCC3)ncnc12` [Example 70, 4-(2-cyclohexylethoxy)-8-fluoroquinazoline], for which the mortality at 400 ppm was 0%.
On the same count and under the same terms, next, `COc1ccc(CCOc2ncnc3ccccc23)cc1OC` [Example 73, 4-[2-(3,4-dimethoxyphenyl)ethoxy]quinazoline]: 0%.

Values taken from patent publication EP0326329B1, “Quinazoline derivatives useful as insecticides” (Dow AgroSciences LLC, priority 1988, dated 1989).
